Measurements taken from paper PMC8344761 (Journal of Enzyme Inhibition and Medicinal Chemistry, 2021).
Like-named read-outs stand apart in the source and are kept apart here.

What was measured:
A-Raf = target: T1, A-Raf (Homo sapiens, UniProt P10398); assay: Raf kinase assay (Kinase HotSpot, Reaction Biology Corp.); assay type: biochemical; settings: for inhibition at 1 µM: fixed concentration 1 μM, mean of two independent experiments
T1 sequence (P10398 1-606): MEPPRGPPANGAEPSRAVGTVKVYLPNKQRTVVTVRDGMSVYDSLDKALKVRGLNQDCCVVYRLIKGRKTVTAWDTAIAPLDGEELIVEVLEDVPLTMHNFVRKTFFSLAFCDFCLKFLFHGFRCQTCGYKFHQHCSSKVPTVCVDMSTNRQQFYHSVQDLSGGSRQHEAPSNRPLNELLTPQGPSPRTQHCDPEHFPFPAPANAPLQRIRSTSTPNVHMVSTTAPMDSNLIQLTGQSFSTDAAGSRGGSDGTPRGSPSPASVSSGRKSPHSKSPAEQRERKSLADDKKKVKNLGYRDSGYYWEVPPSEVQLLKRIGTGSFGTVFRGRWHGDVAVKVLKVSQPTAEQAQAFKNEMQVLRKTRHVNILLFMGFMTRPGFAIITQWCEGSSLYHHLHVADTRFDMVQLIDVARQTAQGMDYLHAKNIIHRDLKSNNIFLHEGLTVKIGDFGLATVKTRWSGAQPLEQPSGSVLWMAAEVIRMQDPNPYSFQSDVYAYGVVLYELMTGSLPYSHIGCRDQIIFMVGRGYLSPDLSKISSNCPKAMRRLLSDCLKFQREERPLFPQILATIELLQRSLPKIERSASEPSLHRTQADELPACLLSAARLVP
Experimental: Compounds were delivered into each Raf reaction, followed ∼20 min later by addition of a mixture of ATP and [γ-^33P-ATP] (specific activity approx. 500 cpm/pmol, concentration as required) to a final concentration of 10 µM. […] Then, the reaction was spotted onto a P30 filtermat, and unbound phosphate was removed by washing three times for 5 min in 75 mM phosphoric acid and once in methanol prior to drying and scintillation counting. […] IC50 values and curve fits were obtained using Prism (GraphPad Software, La Jolla, CA).

B-Raf = B-Raf (Homo sapiens, UniProt P15056); assay: as above; assay type: biochemical; settings: for inhibition at 1 µM: fixed concentration 1 μM, mean of two independent experiments
Experimental: (§1) Compounds were delivered into each Raf reaction, followed ∼20 min later by addition of a mixture of ATP and [γ-^33P-ATP] (specific activity approx. 500 cpm/pmol, concentration as required) to a final concentration of 10 µM. After incubation for 40 min at 25 °C, the reaction was stopped by the addition of a 3% phosphoric acid solution. Then, the reaction was spotted onto a P30 filtermat, and unbound phosphate was removed by washing three times for 5 min in 75 mM phosphoric acid and once in methanol prior to drying and scintillation counting. […] IC50 values and curve fits were obtained using Prism (GraphPad Software, La Jolla, CA).

B-Raf (V600E) = B-Raf (V600E) (Homo sapiens, UniProt P15056, V600E); assay: as above; assay type: biochemical; settings: for inhibition at 1 µM: fixed concentration 1 μM, mean of two independent experiments, B-Raf (V599E)
Experimental: as §1

C-Raf = C-Raf (Homo sapiens, UniProt P04049); assay: as above; assay type: biochemical; settings: for inhibition at 1 µM: read-out: Inhibition (%) C-Raf
Experimental: as §1

VEGFR-2 tyrosine kinase = target: T2, VEGFR-2 tyrosine kinase (Homo sapiens, UniProt P35968); assay: VEGFR-2 (KDR) kinase assay (ADP-glow); assay type: biochemical; settings: fixed concentration 1 µM; read-out: inhibitory activity against VEGFR-2 tyrosine kinase
T2 construct: purchased Promega

Hep3B = assay: Cell proliferation assay (MTT); assay type: cell-based; settings: Homo sapiens, 48 h, mean ± SEM of three independent experiments, read-out: Cancer cell proliferation IC50 Hep3B
Experimental: (§2) Hepatocellular carcinoma cell lines (HepG2, Huh7), human pancreatic ductal epithelial cell line (H6c7), and normal human colon cell line (CCD841) were obtained from the American Type Culture Collection (ATCC) (Manassas, VA, USA). Cells were cultured in DMEM/High Glucose media (Hep3B, Huh7, CCD841) or MEM/EBSS media (HepG2) containing 10% FBS, 100 IU/ml of penicillin and 100 µg/ml of streptomycin. H6c7 cells were cultured in keratinocyte serum free media supplemented with epidermal growth factor and bovine pituitary extract. Cells were maintained in 5% CO2 humidified atmosphere at 37 °C.
(§3) Cells were seeded in a 96-well plate and allowed to adhere for 24 h. The cells were serum starved in 1% serum containing medium for 12 h, and then treated with drugs in 10% serum-containing medium. After incubation for 48 h, cell proliferation was measured using MTT assay. Optical density was measured at 540 nm using a Spectrostar Nano microplate reader (BMG LABTECH GmbH, Ortenberg, Germany).

HepG2 = assay: Cell proliferation assay (MTT); assay type: cell-based; settings: Homo sapiens, 48 h, mean ± SEM of three independent experiments, read-out: Cancer cell proliferation IC50 HepG2
Experimental: as §2, §3

Huh7 = assay: Cell proliferation assay (MTT); assay type: cell-based; settings: Homo sapiens, Huh-7, 48 h, mean ± SEM of three independent experiments, read-out: Cancer cell proliferation IC50 Huh7
Experimental: as §2, §3

[1] = Cytotoxicity assay (MTT), normal cells; assay type: cell-based, human; settings: human, mean ± SEM
Experimental: as §2
(§4) Cells were seeded in a 96-well plate and allowed to adhere for 24 h. Cells in low serum (1%)-containing medium were treated with drugs for 48 h. In case of H6c7 cells, cells in keratinocyte serum free media were treated with drugs for 48 h. Then, cell viability was measured using MTT assay. Optical density was measured at 540 nm using a Spectrostar Nano microplate reader (BMG LABTECH).

Hep3B cells = assay: Sphere formation assay; assay type: cell-based; settings: Homo sapiens, 48 h drug treatment, 13 days culture, read-out: % Inhibition of sphere forming Hep3B
Experimental: (§5) Sphere forming ability of Hep3B and Huh7 cells were examined after incubation with drugs for 48 h. Briefly, 3 × 10^3 cells which were pre-treated with or without drugs in prEGM media (Lonza, Basel, Switzerland) were seeded on an ultra-low adhering 24 well plate (Corning Incorporated Costar, Corning, NY). Twice a week, 500 µL of used medium was replaced with fresh prEGM media. At 13 days after plating, images of spheres were captured using Celloger Mini (Curiosis Inc., Seoul, South Korea). The number of spheroids over 50 µm in diameter was counted by using Image J software (National Institute of Health, Bethesda, MD).

Huh7 cells = assay: Sphere formation assay; assay type: cell-based; settings: Homo sapiens, Huh-7, 48 h drug treatment, 13 days culture, read-out: % Inhibition of sphere forming Huh7
Experimental: as §5

CCD841 = assay: Cytotoxicity assay (MTT), normal cells; assay type: cell-based, human; settings: normal colon epithelial cell line, 48 h, mean ± SEM
Experimental: as §2, §4

H6c7 = assay: Cytotoxicity assay (MTT), normal cells; assay type: cell-based, human; settings: normal pancreatic ductal epithelial cell line, 48 h, mean ± SEM
Experimental: as §2, §4

[2] = test system: Huh7 cells xenografted onto CAM; assay: Huh7-xenografted CAM tumour model; assay type: in vivo, chick; settings: 10 µM final concentration on CAM; Huh7 xenograft
Experimental: Cancer cell xenograft onto chick chorioallantoic membrane (CAM), an in vivo tumour model, was used to evaluate anti-tumour efficacy of compounds. Fertilised chicken eggs purchased from Byeolbichon Farm (Gyeongbuk, South Korea) were incubated at 37 °C with 55% relative humidity. On day 9 of egg incubation (embryonic day 9, E9), a small hole was made in the shell over the air sac after the selection of bifurcated vessels. Another hole was made on the broadside using a needle by applying negative pressure from the wider part, creating false air sac. Using a grinding wheel (Dremel, Racine, WI), a small window (1 cm^2) was created in the eggshell above the false air sac. For generation of xenograft CAM tumour model, Huh7 cells (1.5 × 10^6 cells/CAM) were inoculated on the CAM with or without test drugs (10 µM final concentration). On day 13 of egg incubation (E13), tumour tissues attached to CAM were resected from the embryo and harvested. Photographs of tumour as well as blood vessel branches were taken using optical microscope (Olympus Corporation, Tokyo, Japan). Tumour tissues were weighted and the number of vessel branch points within the tumour region was counted.

[3] = fixed concentration 1 μM, mean of two independent experiments
[4] = CCD841 cells (normal colon epithelial cell line)
[5] = H6c7 cells (normal pancreatic ductal epithelial cell line)

B-Raf, sequence (P15056 whole entry): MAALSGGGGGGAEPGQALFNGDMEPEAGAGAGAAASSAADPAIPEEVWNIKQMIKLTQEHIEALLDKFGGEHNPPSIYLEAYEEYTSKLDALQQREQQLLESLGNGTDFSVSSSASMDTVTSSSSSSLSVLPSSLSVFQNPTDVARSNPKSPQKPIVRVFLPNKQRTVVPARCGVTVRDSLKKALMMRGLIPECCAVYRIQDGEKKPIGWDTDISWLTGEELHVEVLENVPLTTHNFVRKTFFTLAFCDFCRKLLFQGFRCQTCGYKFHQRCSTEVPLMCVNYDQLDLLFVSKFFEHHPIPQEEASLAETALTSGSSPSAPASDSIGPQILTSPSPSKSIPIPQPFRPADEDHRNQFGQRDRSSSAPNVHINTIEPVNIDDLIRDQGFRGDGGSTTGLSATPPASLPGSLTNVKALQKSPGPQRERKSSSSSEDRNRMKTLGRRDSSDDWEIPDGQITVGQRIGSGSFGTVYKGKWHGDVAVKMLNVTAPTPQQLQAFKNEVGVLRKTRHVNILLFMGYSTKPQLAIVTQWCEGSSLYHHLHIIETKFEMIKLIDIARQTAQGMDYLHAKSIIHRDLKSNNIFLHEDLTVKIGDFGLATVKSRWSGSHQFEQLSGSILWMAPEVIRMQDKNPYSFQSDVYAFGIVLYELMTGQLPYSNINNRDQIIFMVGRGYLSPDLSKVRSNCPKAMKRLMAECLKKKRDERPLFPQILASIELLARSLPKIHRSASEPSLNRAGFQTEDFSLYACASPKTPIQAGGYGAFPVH
B-Raf (V600E), sequence (P15056 whole entry V600E): as the sequence (P15056 whole entry) above, with V600E counted along it
C-Raf, sequence (P04049 whole entry): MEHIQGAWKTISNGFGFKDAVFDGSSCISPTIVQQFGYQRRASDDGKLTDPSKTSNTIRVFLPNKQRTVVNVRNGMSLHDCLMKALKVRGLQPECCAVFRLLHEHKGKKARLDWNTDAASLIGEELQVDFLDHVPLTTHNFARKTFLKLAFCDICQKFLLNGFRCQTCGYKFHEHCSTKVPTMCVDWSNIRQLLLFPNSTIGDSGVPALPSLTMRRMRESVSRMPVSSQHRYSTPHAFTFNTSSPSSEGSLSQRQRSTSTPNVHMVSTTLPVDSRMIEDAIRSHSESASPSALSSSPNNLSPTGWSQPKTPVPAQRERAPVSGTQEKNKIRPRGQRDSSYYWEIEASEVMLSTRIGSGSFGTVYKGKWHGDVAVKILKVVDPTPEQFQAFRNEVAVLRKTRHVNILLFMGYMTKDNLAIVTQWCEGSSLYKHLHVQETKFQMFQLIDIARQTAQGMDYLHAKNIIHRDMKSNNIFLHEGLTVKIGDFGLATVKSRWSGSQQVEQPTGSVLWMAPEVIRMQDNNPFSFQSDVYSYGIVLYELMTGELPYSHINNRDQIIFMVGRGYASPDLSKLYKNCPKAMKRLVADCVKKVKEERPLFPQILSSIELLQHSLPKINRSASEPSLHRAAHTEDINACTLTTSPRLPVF
T2 sequence (P35968 20-1356): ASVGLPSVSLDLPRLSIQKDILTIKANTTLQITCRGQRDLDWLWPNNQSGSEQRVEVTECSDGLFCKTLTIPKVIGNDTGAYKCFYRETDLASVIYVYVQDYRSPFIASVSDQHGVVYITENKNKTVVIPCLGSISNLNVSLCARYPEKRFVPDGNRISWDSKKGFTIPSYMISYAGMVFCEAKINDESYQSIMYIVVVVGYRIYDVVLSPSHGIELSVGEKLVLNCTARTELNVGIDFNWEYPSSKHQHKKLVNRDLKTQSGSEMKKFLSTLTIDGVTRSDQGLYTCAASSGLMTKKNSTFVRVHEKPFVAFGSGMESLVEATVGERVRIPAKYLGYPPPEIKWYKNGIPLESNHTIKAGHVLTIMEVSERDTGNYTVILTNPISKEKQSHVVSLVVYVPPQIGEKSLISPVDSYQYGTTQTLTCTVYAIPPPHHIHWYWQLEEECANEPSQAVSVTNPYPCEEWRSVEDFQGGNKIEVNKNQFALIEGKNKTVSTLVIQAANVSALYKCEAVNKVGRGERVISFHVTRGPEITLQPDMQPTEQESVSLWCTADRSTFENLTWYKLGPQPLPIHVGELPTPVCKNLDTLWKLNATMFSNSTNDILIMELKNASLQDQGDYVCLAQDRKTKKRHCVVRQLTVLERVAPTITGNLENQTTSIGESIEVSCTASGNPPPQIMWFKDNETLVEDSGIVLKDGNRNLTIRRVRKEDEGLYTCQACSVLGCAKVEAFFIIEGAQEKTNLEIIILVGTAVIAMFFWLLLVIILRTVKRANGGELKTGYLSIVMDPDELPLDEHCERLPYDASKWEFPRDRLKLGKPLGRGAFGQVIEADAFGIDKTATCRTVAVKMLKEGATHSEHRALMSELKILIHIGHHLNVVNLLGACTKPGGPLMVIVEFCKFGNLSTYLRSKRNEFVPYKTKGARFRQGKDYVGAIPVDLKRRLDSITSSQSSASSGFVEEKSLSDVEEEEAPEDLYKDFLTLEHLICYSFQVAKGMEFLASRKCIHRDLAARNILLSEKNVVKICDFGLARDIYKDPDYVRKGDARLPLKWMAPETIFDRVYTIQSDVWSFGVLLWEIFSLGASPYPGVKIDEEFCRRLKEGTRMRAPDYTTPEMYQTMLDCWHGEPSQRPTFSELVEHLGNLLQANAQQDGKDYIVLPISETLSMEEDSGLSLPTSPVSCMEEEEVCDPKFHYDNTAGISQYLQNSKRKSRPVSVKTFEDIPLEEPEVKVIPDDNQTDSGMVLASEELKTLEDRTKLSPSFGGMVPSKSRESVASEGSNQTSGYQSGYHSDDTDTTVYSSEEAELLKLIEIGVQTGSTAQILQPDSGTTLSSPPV

inhibition at 1 µM (A-Raf) [%]	inhibition at 1 µM (B-Raf) [%]	inhibition at 1 µM (B-Raf (V600E)) [%]	inhibition at 1 µM (C-Raf; [3]) [%]	melting point [°C]	SMILES	IC50 (Hep3B) [µM]	IC50 (HepG2) [µM]	IC50 (Huh7) [µM]	CC50 at 48 h [1, 4] [µM]	CC50 at 48 h [1, 5] [µM]	inhibition at 1 µM (Hep3B cells) [%]	inhibition at 10 µM (Hep3B cells) [%]	inhibition at 1 µM (Huh7 cells) [%]	inhibition at 10 µM (Huh7 cells) [%]	also measured
84.6	65	88.2	92.5	244	CNC(=O)c1cc(Oc2c(C)nc(NC(=O)Nc3cccc(C(F)(F)F)c3)c(C)c2C)ccn1 [Compound 6, N-Methyl-4-((2,4,5-trimethyl-6–(3-(3-(trifluoromethyl)phenyl)ureido)pyridin-3-yl)oxy)picolinamide]	6.49 ± 0.12	5.02 ± 0.06	4.77 ± 0.09	> 10	> 10	38.3	55.6	23.8	44.2	IC50 (A-Raf; mean ± SD of two independent experiments, read-out: In vitro Raf kinase inhibition IC50 A-Raf): 0.057 ± 0.0086 µM; IC50 (B-Raf; mean ± SD of two independent experiments, read-out: In vitro Raf kinase inhibition IC50 B-Raf): 0.216 ± 0.0436 µM; IC50 (B-Raf (V600E); mean ± SD of two independent experiments, read-out: In vitro Raf kinase inhibition IC50 B-Raf(V600E)): 0.07 ± 0.0004 µM; IC50 (C-Raf; mean ± SD of two independent experiments, read-out: In vitro Raf kinase inhibition IC50 C-Raf): 0.022 ± 0.0008 µM; inhibition at 1 µM (VEGFR-2 tyrosine kinase): ~-6%
72.4	48.5	75.2	91	251	CNC(=O)c1cc(Oc2c(C)nc(NC(=O)Nc3ccc(Cl)c(C(F)(F)F)c3)nc2C)ccn1 [Compound 28, 4-((2-(3-(4-Chloro-3-(trifluoromethyl)phenyl)ureido)-4,6-dimethylpyrimidin-5-yl)oxy)-N-methylpicolinamide]										

SMILES	inhibition at 1 µM (A-Raf) [%]	inhibition at 1 µM (B-Raf) [%]	inhibition at 1 µM (B-Raf (V600E)) [%]	inhibition at 1 µM (C-Raf; [3]) [%]	melting point [°C]	IC50 (Hep3B) [µM]	IC50 (HepG2) [µM]	IC50 (Huh7) [µM]	CC50 at 48 h [1, 4] [µM]	CC50 at 48 h [1, 5] [µM]	inhibition at 1 µM (Hep3B cells) [%]	inhibition at 10 µM (Hep3B cells) [%]	inhibition at 1 µM (Huh7 cells) [%]	inhibition at 10 µM (Huh7 cells) [%]	also measured
CNC(=O)c1cc(Oc2ccc(NC(=O)Nc3ccc(Cl)c(C(F)(F)F)c3)cc2)ccn1 [Sorafenib, reference compound]	93.7					1.22 ± 0.05	1.29 ± 0.02	1.17 ± 0.04	~4.1	~4.4	43.6	56.4	59.7	85.9	inhibition at 1 µM (C-Raf): 97.6%; CC50 (CCD841): 4.08 ± 0.58 µM; CC50 (H6c7): 4.36 ± 0.21 µM; inhibition of tumour-induced angiogenesis (new vessel branches) [2]: significantly blocked
